Experimental data published in patent publication US4252984A, “Phenol ethers” (Synthelabo, priority 1975, dated 1981).
Where two headings read alike, the source gives them in different places.

Columns and labels:
[1] = in vivo; details: mouse, mortality over 5 days, confidence limits: 95%
Experimental: Acute toxicity: The acute toxicity for oral and intravenous administration was evaluated for CD1 male mice of average weight 20 g. The mortality was recorded over a period of 5 days following the administration of the compounds.

[2] = target: T1, β1 -adrenergic receptors (Rattus norvegicus, UniProt P18090); test: Studies on isolated organs: antagonism of isoprenaline-induced tachycardia and increase in contractile force in isolated rat auricles (pA2); design: species or system rats; details: for Effect on inotropism, ratio of activity to that of metoprolol: isoprenaline contractile force; for Effect on inotropism, ratio of activity to that of metoprolol / Effect on chronotropism, ratio of activity to that of metoprolol: metoprolol = 1.0; for Kb / pA2, effect on chronotropism / pA2, effect on inotropism: 31° C.
T1 construct: from tissue; host or cells: isolated rat auricles (atria)

[3] = intravenous administration, read-out: LD50 intravenous administration
[4] = oral administration, read-out: LD50 oral administration
[5] = isoprenaline increase in contractile force, read-out: pA2, effect on inotropism (converted)
[6] = isoprenaline tachycardia, read-out: pA2, effect on chronotropism (converted)
[7] = isoprenaline increase in contractile force

T1 sequence (P18090 whole entry): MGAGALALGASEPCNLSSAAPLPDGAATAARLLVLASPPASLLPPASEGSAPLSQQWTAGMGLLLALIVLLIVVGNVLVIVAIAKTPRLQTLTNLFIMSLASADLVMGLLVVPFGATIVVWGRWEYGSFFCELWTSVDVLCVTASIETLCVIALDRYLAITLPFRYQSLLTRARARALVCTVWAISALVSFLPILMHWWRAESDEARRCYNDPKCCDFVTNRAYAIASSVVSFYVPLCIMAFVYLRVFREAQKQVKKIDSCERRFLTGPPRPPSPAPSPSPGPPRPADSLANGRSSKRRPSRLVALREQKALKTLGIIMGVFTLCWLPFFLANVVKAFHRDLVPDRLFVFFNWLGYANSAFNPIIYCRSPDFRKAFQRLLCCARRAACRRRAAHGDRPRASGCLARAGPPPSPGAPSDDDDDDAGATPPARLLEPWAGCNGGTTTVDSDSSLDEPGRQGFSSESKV

SMILES	LD50 at 120 h [1, 3]	LD50 at 120 h [1, 4]	Effect on inotropism, ratio of activity to that of metoprolol [2]	Kb [2, 5]	pA2, effect on chronotropism ([2]; isoprenaline tachycardia)	Effect on chronotropism, ratio of activity to that of metoprolol ([2]; isoprenaline tachycardia)	Kb [2, 6]	pA2, effect on inotropism [2, 7]
COCCc1ccc(OCC(O)CNC(C)C)cc1 (stereo not shown) [METOPROLOL, 1-[4-(2-methoxy-ethyl)-phenoxy]-3-isopropylamino-propan-2-ol, reference compound]	62 mg/kg	1050 mg/kg						
CC(C)NCC(O)COc1ccc(CCSCC2CCC2)cc1 (stereo not shown) [SL D.056, 1-[4-(2-Cyclobutylmethylthio-ethyl)-phenoxy]-3-isopropylamino-propan-2-ol]			0.09	132 nM	7.11	0.3		
CC(C)NCC(O)COc1ccc(OCCOCC2CC2)cc1 (stereo not shown) [SL D.177, 1-{4-[2-(cyclopropylmethoxy)-ethoxy]-phenoxy}-3-isopropylamino-propan-2-ol]	76 mg/kg	610 mg/kg	1.1	10.7 nM		2.8	8.13 nM	
CC(C)(C)NCC(O)COc1ccc(OCCOCC2CC2)cc1 (stereo not shown) [SL D.178, 1-{4-[2-(Cyclopropylmethoxy)-ethoxy]-phenoxy}-3-t-butylamino-propan-2-ol]	53 mg/kg	445 mg/kg	1.0	11 nM		1.4	20 nM	
CC(C)NCC(O)COc1ccc(CCOCC2CC2)cc1 (stereo not shown) [SL D.212, 1-{4-[2-(Cyclopropylmethoxy)ethyl]-phenoxy}-3-isopropylamino-propan-2-ol]	37 mg/kg	944 mg/kg						
CC(C)NCC(O)COc1ccc(COCC2CC2)cc1 (stereo not shown) [SL D.224, 1-[4-(cyclopropylmethoxymethyl)-phenoxy]-3-isopropylamino-propan-2-ol]	88 mg/kg	1400 mg/kg						
CC(C)NCC(O)COc1ccc(OCC2CC2)cc1 (stereo not shown) [SL D.230, 1-[4-(Cyclopropylmethoxy)-phenoxy]-3-isopropylamino-propan-2-ol]	48 mg/kg	750 mg/kg	2.1	5.37 nM		4.6	5.01 nM	
CC(C)(C)NCC(O)COc1ccc(OCC2CC2)cc1 (stereo not shown) [SL D.231, 1-[4-(Cyclopropylmethoxy)-phenoxy]-3-t-butylamino-propan-2-ol]	36 mg/kg	1200 mg/kg	0.3	33.9 nM		0.8	28.8 nM	
CC(C)NCC(O)COc1ccc(CCOCC2CCC2)cc1 (stereo not shown) [SL D.254, 1-{4-[2-(Cyclobutylmethoxy)-ethyl]-phenoxy}-3-isopropylamino-propan-2-ol]	28 mg/kg	658 mg/kg						
CC(C)NCC(O)COc1ccc(CCOCC2CCCCC2)cc1 (stereo not shown) [SL D.268, 1-{4-[2-(Cyclohexylmethoxy)-ethyl]-phenoxy}-3-isopropylamino-propan-2-ol]	35 mg/kg		0.03	398 nM	6.84	0.2		
CC(C)NCC(O)COc1ccc(CCOCC2CCCC2)cc1 (stereo not shown) [SL D.291]	56 mg/kg		0.08	148 nM	6.89	0.2		
CC(C)NCC(O)COc1ccc(OCCSCC2CC2)cc1 (stereo not shown) [SL D.299, 1-[4-(2-Cyclopropylmethylthio-ethoxy)-phenoxy]-3-isopropylamino-propan-2-ol]			0.8	14.8 nM		1.3	17.4 nM	
CC(C)NCC(O)COc1ccc(OCCCC2CC2)cc1 (stereo not shown) [SL D.311, 1-(4-Cyclopropylpropoxy-phenoxy)-3-isopropylamino-propan-2-ol]	71 mg/kg		0.2	52.5 nM		0.2	91.2 nM	
CC(CC#N)NCC(O)COc1ccc(CCOCC2CCC2)cc1 (stereo not shown) [SL E.024, 1-[4-(2-Cyclobutylmethoxy-ethyl)-phenoxy]-3-(1-methyl-2-cyano-ethylamino)-propan-2-ol]			0.02	617 nM	6.47	0.07		
CC(=O)NCCNCC(O)COc1ccc(CCOCC2CCC2)cc1 (stereo not shown) [SL E.025, 1-[4-(2-Cyclobutylmethoxy-ethyl)-phenoxy]-3-(2-acetylamino-ethylamino)-propan-2-ol]			0.2			0.6	37.2 nM	7.21
CC(CCc1ccccc1)NCC(O)COc1ccc(CCOCC2CCC2)cc1 (stereo not shown) [SL E.049]			0.01	1230 nM	5.11			
CC(CCc1ccc(F)cc1)NCC(O)COc1ccc(CCOCC2CCC2)cc1 (stereo not shown) [SL E.059]			0.02	692 nM	5.54			
CC(C)NCC(O)COc1ccc(CCS(=O)(=O)CC2CCC2)cc1 (stereo not shown) [SL E.060, 1-[4-(2-Cyclobutylmethylsulphonyl-ethyl)phenoxy]-3-isopropylamino-propan-2-ol]			1.0			1.9	11.7 nM	7.94
CC(C)NCC(O)COc1ccc(CCCOCC2CCC2)cc1 (stereo not shown) [SL E.061]			0.1	89.1 nM	7.02	0.2		
CC(C)NCC(O)COc1ccc(COCC2CCC2)cc1 (stereo not shown) [SL E.080]			0.4	30.2 nM	7.44	0.6		
CC(C)NCC(O)COc1ccc(OCCOCC2CCC2)cc1 (stereo not shown) [SL E.096, 1-[4-(2-cyclobutylmethoxyethoxy)-phenoxy]-3-isopropylamino-propan-2-ol]			2.2	5.13 nM		4.1	5.62 nM	
COc1ccc(CCNCC(O)COc2ccc(CCOCC3CCC3)cc2)cc1OC (stereo not shown) [SL E.111]			0.1	74.1 nM	7.75	1.3		
CC(C)NCC(O)COc1ccc(OCCS(=O)(=O)CC2CC2)cc1 (stereo not shown) [SL E.155, 1-[4-(2-Cyclopropylmethylsulphonyl-ethoxy)phenoxy]-3-isopropylamino-propan-2-ol]			0.08	141 nM		0.1	162 nM	
CC(C)NCC(O)COc1ccc(OCCOCC2CCCC2)cc1 (stereo not shown) [SL E.203]			1.00	10.7 nM		4.17	5.5 nM	
